How the values were obtained:
Format in all cases: in vivo
[1] = test system: field corn (Zea mays L., var. Dekalb 535, CORN); assay: Post-emerge test, crop safety; conditions: post-emerge, 14 days after application, rating scale 0-100
In short: (§1)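 Compounds in acetone were track-sprayed at 187 l/ha, 15–1000 g ai/ha, onto sandy loam pots. Pre-emerge seeds were sown one day before spraying, with surface watering afterwards. Post-emerge plants were at the 2–3 leaf stage and sprayed with 0.25% v/v non-ionic surfactant. Injury was rated 0–100 at 14 days.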

[2] = test system: upland rice (Oryza sp., var. Tebonnet, RICE); assay: Post-emerge test, crop safety; conditions: post-emerge, 14 days after application, rating scale 0-100
In short: as §1

[3] = test system: large crabgrass (Digitaria sanguinalis, DIGSA); assay: Post-emerge test, greenhouse herbicide activity screening; conditions: post-emerge, 14 days after application, rating scale 0-100
In short: (§2)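 Rating: 0–100 visual injury, 14 DAA. Application: acetone, 187 l/ha, 15–1000 g ai/ha, flat-fan track sprayer with nozzle 40–45 cm above soil or canopy. Post-emerge runs used 0.25% v/v surfactant on 2–3 leaf plants.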

[4] = test system: green foxtail (Setaria viridis, SETVI); assay: as above; conditions: post-emerge, 14 days after application, rating scale 0-100
In short: as §2

[5] = test system: barnyardgrass (Echinochloa crus-galli, ECHCG); assay: as above; conditions: post-emerge, 14 days after application, rating scale 0-100
In short: as §2

[6] = test system: ivyleaf morningglory (Ipomoea hederacea, IPOHE); assay: as above; conditions: post-emerge, 14 days after application, rating scale 0-100
In short: as §2

[7] = test system: johnsongrass (Sorghum halepense, SORHA); assay: as above; conditions: post-emerge, 14 days after application, rating scale 0-100
In short: as §2

[8] = test system: lambsquarters (Chenopodium album, CHEAL); assay: as above; conditions: post-emerge, 14 days after application, rating scale 0-100
In short: as §2

[9] = test system: redroot pigweed (Amaranthus retroflexus, AMARE); assay: as above; conditions: post-emerge, 14 days after application
In short: as §2

[10] = test system: velvetleaf (Abutilon theophrasti, ABUTH); assay: as above; conditions: post-emerge, 14 days after application, rating scale 0-100
In short: as §2

[11] = test system: sicklepod (Cassia obtusifolia, CASOB); assay: as above; conditions: post-emerge, 14 days after application, rating scale 0-100
In short: as §2

[12] = test system: large crabgrass (Digitaria sanguinalis, DIGSA); assay: Pre-emerge test, greenhouse herbicide activity screening; conditions: pre-emerge, 14 days after application, rating scale 0-100
In short: as §1

[13] = test system: green foxtail (Setaria viridis, SETVI); assay: as above; conditions: pre-emerge, 14 days after application, rating scale 0-100
In short: as §1

[14] = test system: barnyardgrass (Echinochloa crus-galli, ECHCG); assay: as above; conditions: pre-emerge, 14 days after application, rating scale 0-100
In short: as §1

[15] = test system: ivyleaf morningglory (Ipomoea hederacea, IPOHE); assay: as above; conditions: pre-emerge, 14 days after application, rating scale 0-100
In short: as §1

[16] = test system: johnsongrass (Sorghum halepense, SORHA); assay: as above; conditions: pre-emerge, 14 days after application, rating scale 0-100
In short: as §1

[17] = test system: lambsquarters (Chenopodium album, CHEAL); assay: as above; conditions: pre-emerge, 14 days after application, rating scale 0-100
In short: as §1

[18] = test system: velvetleaf (Abutilon theophrasti, ABUTH); assay: as above; conditions: pre-emerge, 14 days after application, rating scale 0-100
In short: as §1

[19] = test system: sicklepod (Cassia obtusifolia, CASOB); assay: as above; conditions: pre-emerge, 14 days after application, rating scale 0-100
In short: as §1

[20] = test system: field corn (Zea mays L., var. Dekalb 535, CORN); assay: Pre-emerge test, crop safety; conditions: pre-emerge, 14 days after application, rating scale 0-100
In short: (§3)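 Fourteen days after spraying, crop and weed injury was graded visually from 0, no effect, to 100, every plant dead. Test substances were dissolved in acetone and applied at 15–1000 g ai/ha with a flat-fan nozzle. Application was either pre-emergence, one day after sowing, or post-emergence at the 2–3 leaf stage.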

[21] = test system: upland rice (Oryza sp., var. Tebonnet, RICE); assay: Pre-emerge test, crop safety; conditions: pre-emerge, 14 days after application, rating scale 0-100
In short: as §3

[22] = test system: redroot pigweed (Amaranthus retroflexus, AMARE); assay: Pre-emerge test, greenhouse herbicide activity screening; conditions: pre-emerge, 14 days after application, rating scale 0-100
In short: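 Herbicidal damage is scored 0 (none) to 100 (complete plant death) two weeks after a simulated field spray. Rates span 15–1000 g ai/ha, delivered in acetone at 187 l/ha. For post-emergence treatments, plants have 2–3 leaves and the spray carries 0.25% v/v non-ionic surfactant.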

## COc1c(Cl)cc(F)c(-n2c(=O)cc(C(F)(F)F)n(C)c2=O)c1Sc1ccc2ccccc2c1 [17-4]
[1]; 63 g ai/ha
  Post-emerge Herbicidal Activity CORN (crop damage rating): 0
[1]; 250 g ai/ha
  Post-emerge Herbicidal Activity CORN (crop damage rating): 0
[2]; 63 g ai/ha
  Post-emerge Herbicidal Activity RICE (crop damage rating): 0
[2]; 250 g ai/ha
  Post-emerge Herbicidal Activity RICE (crop damage rating): 0
[3]; 63 g ai/ha
  Post-emerge Herbicidal Activity DIGSA (phytotoxicity rating): 0
[3]; 250 g ai/ha
  Post-emerge Herbicidal Activity DIGSA (phytotoxicity rating): 0
[4]; 63 g ai/ha
  Post-emerge Herbicidal Activity SETVI (phytotoxicity rating): 0
[4]; 250 g ai/ha
  Post-emerge Herbicidal Activity SETVI (phytotoxicity rating): 0
[5]; 63 g ai/ha
  Post-emerge Herbicidal Activity ECHCG (phytotoxicity rating): 0
[5]; 250 g ai/ha
  Post-emerge Herbicidal Activity ECHCG (phytotoxicity rating): 0
[6]; 63 g ai/ha
  Post-emerge Herbicidal Activity IPOHE (phytotoxicity rating): 20
[6]; 250 g ai/ha
  Post-emerge Herbicidal Activity IPOHE (phytotoxicity rating): 80
[7]; 63 g ai/ha
  Post-emerge Herbicidal Activity SORHA (phytotoxicity rating): 0
[7]; 250 g ai/ha
  Post-emerge Herbicidal Activity SORHA (phytotoxicity rating): 0
[8]; 63 g ai/ha
  Post-emerge Herbicidal Activity CHEAL (phytotoxicity rating): 20
[8]; 250 g ai/ha
  Post-emerge Herbicidal Activity CHEAL (phytotoxicity rating): 40
[9]; 63 g ai/ha, rating scale 0-100 (0 no damage, 100 complete death)
  Post-emerge Herbicidal Activity AMARE (phytotoxicity rating): 20
[9]; 250 g ai/ha, rating scale 0-100
  Post-emerge Herbicidal Activity AMARE (phytotoxicity rating): 70
[10]; 63 g ai/ha
  Post-emerge Herbicidal Activity ABUTH (phytotoxicity rating): 35
[10]; 250 g ai/ha
  Post-emerge Herbicidal Activity ABUTH (phytotoxicity rating): 70
[11]; 63 g ai/ha
  Post-emerge Herbicidal Activity CASOB (phytotoxicity rating): 10
[11]; 250 g ai/ha
  Post-emerge Herbicidal Activity CASOB (phytotoxicity rating): 20
[12]; 63 g ai/ha
  phytotoxicity rating DIGSA: 0
[12]; 250 g ai/ha
  phytotoxicity rating DIGSA: 10
[13]; 63 g ai/ha
  phytotoxicity rating SETVI: 0
[13]; 250 g ai/ha
  phytotoxicity rating SETVI: 20
[14]; 63 g ai/ha
  phytotoxicity rating ECHCG: 0
[14]; 250 g ai/ha
  phytotoxicity rating ECHCG: 0
[15]; 63 g ai/ha
  phytotoxicity rating IPOHE: 0
[15]; 250 g ai/ha
  phytotoxicity rating IPOHE: 10
[16]; 63 g ai/ha
  phytotoxicity rating SORHA: 0
[16]; 250 g ai/ha
  phytotoxicity rating SORHA: 0
[17]; 63 g ai/ha
  phytotoxicity rating CHEAL: 20
[17]; 250 g ai/ha
  phytotoxicity rating CHEAL: 70
[18]; 63 g ai/ha
  phytotoxicity rating ABUTH: 0
[18]; 250 g ai/ha
  phytotoxicity rating ABUTH: 60
[19]; 63 g ai/ha
  phytotoxicity rating CASOB: 0
[19]; 250 g ai/ha
  phytotoxicity rating CASOB: 10
[20]; 63 g ai/ha
  phytotoxicity rating CORN: 0
[20]; 250 g ai/ha
  phytotoxicity rating CORN: 0
[21]; 63 g ai/ha
  phytotoxicity rating RICE: 0
[21]; 250 g ai/ha
  phytotoxicity rating RICE: 10
[22]; 63 g ai/ha
  phytotoxicity rating AMARE: 30
[22]; 250 g ai/ha
  phytotoxicity rating AMARE: 100
